SMILES strings stand for the structures. Several values for one entry are separate records, joined by “and”; a condition that tells them apart may be missing. Equal entries are not always repeated.

A word on the inhibition: it is the share of the control response that was lost under treatment. The IC50 is the point on the concentration scale where inhibition reaches its midpoint. A lower IC50 goes with greater potency.

Assay [1] deals with T1, c-Src kinase (Homo sapiens, UniProt P12931).
T1 construct: purchased Upstate Biotechnology, Lake Placid, N.Y
T1 sequence (P12931 whole entry): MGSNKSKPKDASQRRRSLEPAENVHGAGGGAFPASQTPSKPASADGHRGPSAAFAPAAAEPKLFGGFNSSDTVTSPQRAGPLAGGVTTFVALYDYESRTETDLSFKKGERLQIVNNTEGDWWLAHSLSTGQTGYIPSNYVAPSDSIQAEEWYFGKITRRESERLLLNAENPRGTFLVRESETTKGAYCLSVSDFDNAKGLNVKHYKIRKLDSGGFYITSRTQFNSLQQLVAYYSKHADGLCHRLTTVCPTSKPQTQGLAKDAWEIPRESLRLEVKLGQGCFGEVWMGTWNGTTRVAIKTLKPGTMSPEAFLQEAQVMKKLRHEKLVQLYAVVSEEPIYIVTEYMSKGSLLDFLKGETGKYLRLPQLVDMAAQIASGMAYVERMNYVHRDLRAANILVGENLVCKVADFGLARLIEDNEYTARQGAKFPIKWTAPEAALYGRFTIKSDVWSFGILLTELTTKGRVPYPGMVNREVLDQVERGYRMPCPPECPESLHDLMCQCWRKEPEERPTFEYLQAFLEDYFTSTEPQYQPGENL
The experiment in a line: c-Src Kinase Assay. The assay is classed as biochemical. The conditions noted are these: test concentration of 1 μM. The method, then: A mixure of a 10× kinase buffer (80 mM MOPS at pH 7.0, 2 mM EDTA and 100 mM Magnesium Chloride), ATP (5 μM final from a 10 mM stock), a Cdc2 peptide […] (100 μM final from a 2.5 mM stock), γ-^33P ATP (10 μCi/μL stock) and water (20 μL/well) was added to each well of a Streptavidin Flashplate.
Test compound in 100% DMSO (0.5 μL) was added to the appropriate wells. Diluted c-Src kinase (human) (Upstate Biotechnology, Lake Placid, N.Y.) (diluted in a buffer consisting of 20 mM MOPS at pH 7.0, 1 mM EDTA, β-mercaptoethanol (0.1%), Brij-35 (0.01%), glycerol (5%), and 1 mg/mL bovine serum albumin) (2.5 μL) was added to the wells to initiate the reactions. The reaction plates were incubated at 30° C. for 40 min. The reaction was terminated by the addition of a 3% phosphoric acid solution (5 μL). The reaction product (10 μL) was spotted onto a P30 filtermat and washed for 5 minutes in phosphoric acid (75 mM). The wash sequence was repeated two more times, followed with one final wash in methanol. The plates were then dried, sealed and read on the TopCount scintillation counter after adding 30 μL scintillation fluid.
Percent inhibition was derived according to the procedure described in Example 5. The results for those compounds tested are shown in Table 2 at a test concentration of 1 μM.

For assay [2], the target named is T2, EGFR (Homo sapiens, UniProt P00533).
T2 construct: started at nucleotide 2189 (corresponding to amino acid 667) and ended at the termination codon; made in house; host or cells: Sf9 insect cells (baculovirus)
T2 sequence (P00533 667-1210 limits assumed): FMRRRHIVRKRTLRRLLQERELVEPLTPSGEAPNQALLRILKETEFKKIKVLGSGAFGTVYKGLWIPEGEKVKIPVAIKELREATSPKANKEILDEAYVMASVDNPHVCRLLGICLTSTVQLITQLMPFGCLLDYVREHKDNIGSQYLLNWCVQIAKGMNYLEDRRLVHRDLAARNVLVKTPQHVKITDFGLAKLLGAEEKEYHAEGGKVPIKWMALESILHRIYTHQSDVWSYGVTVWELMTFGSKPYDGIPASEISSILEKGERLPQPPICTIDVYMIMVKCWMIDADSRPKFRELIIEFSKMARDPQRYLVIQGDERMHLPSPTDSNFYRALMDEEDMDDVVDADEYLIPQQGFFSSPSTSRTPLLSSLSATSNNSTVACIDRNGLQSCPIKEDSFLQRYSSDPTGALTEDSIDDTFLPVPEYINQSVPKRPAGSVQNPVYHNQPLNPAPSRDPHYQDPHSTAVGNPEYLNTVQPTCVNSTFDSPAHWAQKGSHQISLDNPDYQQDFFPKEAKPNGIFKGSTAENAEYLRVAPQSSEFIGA
The experiment in a line: EGFR Kinase Assay. As to conditions: GST-EGFR, 5 μM ATP. The assay is classed as biochemical. The method in brief: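 Baculovirus/Sf9-expressed GST-EGFR with biotinylated polyGluTyr substrate, 5 μM ATP plus γ-33P-ATP, in 50 mM Tris pH 8.0, 10 mM MgCl2, 0.1 mM vanadate, 1 mM DTT; 1 h at 30 °C.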

The target of assay [3] is T3, Lyn kinase (Homo sapiens, UniProt P07948).
T3 construct: purchased Upstate biotechnology, Lake Placid, N.Y
T3 sequence (P07948 whole entry): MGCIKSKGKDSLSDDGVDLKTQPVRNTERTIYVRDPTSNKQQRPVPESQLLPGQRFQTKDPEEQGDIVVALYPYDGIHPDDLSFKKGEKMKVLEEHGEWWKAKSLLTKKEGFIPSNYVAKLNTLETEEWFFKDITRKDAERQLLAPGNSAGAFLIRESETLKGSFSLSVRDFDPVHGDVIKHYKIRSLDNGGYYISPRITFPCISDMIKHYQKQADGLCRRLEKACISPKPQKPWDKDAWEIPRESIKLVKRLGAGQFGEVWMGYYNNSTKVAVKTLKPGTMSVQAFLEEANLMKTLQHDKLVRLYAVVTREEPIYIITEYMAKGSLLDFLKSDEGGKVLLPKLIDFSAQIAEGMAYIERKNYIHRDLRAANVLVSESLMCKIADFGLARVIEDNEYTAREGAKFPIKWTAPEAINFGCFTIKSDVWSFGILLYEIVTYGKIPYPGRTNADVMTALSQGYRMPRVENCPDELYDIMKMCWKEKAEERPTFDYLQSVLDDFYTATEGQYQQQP
The experiment in a line: Lyn Kinase Assay. The assay is classed as biochemical. As to conditions: test concentration of 1 μM. As for the experimental part: A mixture of a 10× kinase buffer (500 mM MOPS at pH 7.5, 1 mM EGTA, 1 mM Sodium Vanadate, 1% β-mercaptoethanol and 100 mM Magnesium Acetate), ATP (5 μM final from a 10 mM stock), polyGluTyr (0.1 mg/mL final from a 1 mg/mL stock), γ-^33P ATP (10 μCi/μL stock) and water (20 μL/well) was added to each well of a Streptavidin Flashplate.
Test compound in 100% DMSO (0.5 μL) was added to the appropriate wells. Diluted Lyn kinase (human) (Upstate biotechnology, Lake Placid, N.Y) (diluted in a buffer consisting of 50 mM Tris at pH 7.5, 0.1 mM EGTA, Sodium Vanadate (0.1 mM), β-mercaptoethanol (0.1%) and 1 mg/mL bovine serum albumin) (2.5 μL) was added to the wells to initiate the reactions.
The reaction plates were incubated at 30° C. for 40 min. The reaction was terminated by the addition of a 3% phosphoric acid solution (5 μL). The reaction product (10 μL) was spotted onto a P30 filtermat and washed for 5 minutes in phosphoric acid (75 mM). The wash sequence was repeated two more times, followed with one final wash in methanol. The plates were then dried, sealed and read on the TopCount scintillation counter after adding 30 μL scintillation fluid.
Percent inhibition was derived according to the procedure described in Example 5. The results for those compounds tested are shown in Table 3 at a test concentration of 1 μM.

Assay [4] deals with T4, c-Abl kinase (Homo sapiens, UniProt P00519).
T4 construct: purchased Upstate Biotechnology, Lake Placid, N.Y
T4 sequence (P00519 whole entry): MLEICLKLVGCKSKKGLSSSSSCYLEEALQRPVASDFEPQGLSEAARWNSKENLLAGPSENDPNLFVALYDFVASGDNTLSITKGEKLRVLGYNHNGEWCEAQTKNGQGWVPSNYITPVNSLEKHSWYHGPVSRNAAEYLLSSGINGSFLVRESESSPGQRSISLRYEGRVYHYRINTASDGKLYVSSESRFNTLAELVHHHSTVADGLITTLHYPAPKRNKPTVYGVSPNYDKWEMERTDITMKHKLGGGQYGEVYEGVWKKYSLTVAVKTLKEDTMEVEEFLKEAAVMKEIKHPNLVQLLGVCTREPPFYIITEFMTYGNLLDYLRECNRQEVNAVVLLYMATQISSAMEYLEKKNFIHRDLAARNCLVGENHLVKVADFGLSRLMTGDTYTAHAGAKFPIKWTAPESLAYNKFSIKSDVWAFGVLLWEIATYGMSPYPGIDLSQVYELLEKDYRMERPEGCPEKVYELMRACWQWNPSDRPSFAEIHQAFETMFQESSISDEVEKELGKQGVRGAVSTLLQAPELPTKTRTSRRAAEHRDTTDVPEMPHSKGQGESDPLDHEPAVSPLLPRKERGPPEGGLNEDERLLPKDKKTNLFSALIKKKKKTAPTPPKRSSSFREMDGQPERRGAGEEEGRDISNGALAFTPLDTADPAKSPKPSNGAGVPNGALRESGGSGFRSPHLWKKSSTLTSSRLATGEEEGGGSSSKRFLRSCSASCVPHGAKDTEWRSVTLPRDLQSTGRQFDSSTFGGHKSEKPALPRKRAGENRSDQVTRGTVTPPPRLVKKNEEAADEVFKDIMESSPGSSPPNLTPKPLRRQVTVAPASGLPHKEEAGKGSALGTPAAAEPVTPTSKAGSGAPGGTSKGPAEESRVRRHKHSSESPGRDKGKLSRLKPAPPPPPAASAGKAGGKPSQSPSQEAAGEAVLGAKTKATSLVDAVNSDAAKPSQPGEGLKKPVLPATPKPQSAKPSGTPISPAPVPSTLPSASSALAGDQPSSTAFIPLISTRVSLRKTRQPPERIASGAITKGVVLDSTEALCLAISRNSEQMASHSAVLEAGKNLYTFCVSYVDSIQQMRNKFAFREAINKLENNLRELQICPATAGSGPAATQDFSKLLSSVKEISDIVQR
The experiment in a line: c-Abl Kinase Assay. The assay is classed as biochemical. The conditions noted are these: test concentration of 1 μM; read-out: c-Abl percent inhibition. As for the experimental part:
A mixture of a 10× kinase buffer (80 mM MOPS at pH 7.0, 2 mM EDTA and 100 mM Magnesium Acetate), ATP (5 μM final from a 10 mM stock), a peptide […] (50 μM final from a 0.5 mM stock), γ-^33P ATP (10 μCi/μL stock) and water is added to each well (20 μl/well) of a Streptavidin Flashplate.
Test compound in 100% DMSO (0.5 μL) is added to the appropriate wells. Diluted c-Abl kinase (human) (Upstate Biotechnology, Lake Placid, N.Y.) (diluted in a buffer consisting of 20 mM MOPS at pH 7.0, 1 mM EDTA, β-mercaptoethanol (0.1%), Brij-35 (0.01%), glycerol (5%) and 1 mg/ml bovine serum albumin) (2.5 μL) is added to the wells to initiate the reactions.
The reaction plates are incubated at 30° C. for 40 min. The reaction is terminated by the addition of a 3% phosphoric acid solution (5 μL). The reaction product (10 μL) is spotted onto a P30 filtermat and is washed for 5 minutes in phosphoric acid (75 mM). The wash sequence is repeated two more times and is followed with one final wash in methanol. The plates are then dried, sealed and read on the TopCount scintillation counter after 30 μL scintillation fluid is added.
The 1% percent inhibition value for Compound 64 was derived according to the procedure described in Example 5 at a test concentration of 1 μM.

Assay [5] deals with A375. The experiment in a line: Cell Proliferation Inhibition Assay (14C-thymidine incorporation), A375. As to conditions: Homo sapiens, A-375. The assay is classed as cell-based. The text has this:
(§1) The ability of a test compound to inhibit unregulated cell proliferation may be determined by measuring incorporation of ^14C-labelled thymidine into newly synthesized DNA within cell lines derived from carcinomas originating from several tissues. Accordingly, the anti-proliferative effect of a compound on cells with a variety of phenotypes may be determined.
(§2) Carcinoma cell lines include those such as HeLa cervical adenocarcinoma (American Type Culture Collection (ATCC), Virginia, Cat. #CCL-2), A375 malignant melanoma (ATCC CRL-1619), SK-OV-3 ovarian adenocarcinoma (ATCC HTB-77), HCT-116 colon carcinoma (CCL-247), PC-3 prostate adenocarcinoma (ATCC CRL-1435), and MDA-MB-231 (Xenogen Corp.)
(§3) The carcinoma cells are trypsinized and counted. […]
(§4) An aliquot of a solution of Methyl ^14C-thymidine (56 mC/mmol) (NEN #NEC568 or Amersham #CFA532) and complete medium (20 uL to provide 0.2 μCi/well) is then added to each well and the plate is incubated for a third 24 hr period at 37° C. in an atmosphere containing 5% CO2. […] The plate is sealed and the degree of methyl ^14C-thyrnidine incorporation is quantified on a Packard Top Count.

Assay [6] relates to HeLa. Kind of assay: Cell Proliferation Inhibition Assay (14C-thymidine incorporation), HeLa. As to conditions: Homo sapiens. The format is cell-based.
Text: as §1, §2, §3, §4

Assay [7] concerns HCT-116. The experiment in a line: Cell Proliferation Inhibition Assay (14C-thymidine incorporation), HCT-116. The assay is classed as cell-based. As to conditions: Homo sapiens.
Text: as §1, §2, §3, §4
For orientation: Dividing cells build labelled thymidine or BrdU into new DNA.

For assay [8], the system named is SK-OV-3. Kind of assay: SK-OV-3 Cell Migration Inhibition. The conditions noted are these: several values in a cell are repeat determinations. The assay is classed as cell-based.
For assay [9], the target named is T5, HER-2 (Homo sapiens, UniProt P04626).
T5 construct: the nucleotides encoding amino acids 679 to 1255 of HER-2; HIS6-Thrombin (His6 tag with thrombin site) (N); purchased Proqinase (Freiburg, Germany)
T5 sequence (P04626 679-1255): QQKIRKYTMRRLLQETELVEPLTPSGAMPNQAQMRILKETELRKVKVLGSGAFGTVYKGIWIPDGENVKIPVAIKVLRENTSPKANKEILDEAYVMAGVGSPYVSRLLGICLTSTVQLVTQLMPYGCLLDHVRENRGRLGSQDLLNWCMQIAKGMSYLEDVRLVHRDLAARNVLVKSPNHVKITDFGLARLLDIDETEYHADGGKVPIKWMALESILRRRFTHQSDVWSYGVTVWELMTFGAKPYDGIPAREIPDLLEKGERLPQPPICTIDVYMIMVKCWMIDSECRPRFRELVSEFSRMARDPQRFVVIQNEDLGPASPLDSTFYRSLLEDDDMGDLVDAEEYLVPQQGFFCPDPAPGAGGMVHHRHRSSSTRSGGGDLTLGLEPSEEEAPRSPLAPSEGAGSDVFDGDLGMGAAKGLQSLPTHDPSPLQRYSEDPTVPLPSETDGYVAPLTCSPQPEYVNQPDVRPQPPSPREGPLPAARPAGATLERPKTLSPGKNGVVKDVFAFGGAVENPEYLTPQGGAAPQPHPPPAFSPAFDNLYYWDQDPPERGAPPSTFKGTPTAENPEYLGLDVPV
The experiment in a line: HER-2 Kinase Assay. The assay is classed as biochemical. As to conditions: GST-HER2, 1 μM ATP. As for the experimental part: The HER-2 kinase used was purified at Proqinase (Freiburg, Germany) from a construct that consisted of a fusion of GST (Glutathione-S-Transferase), HIS6-Thrombin and the nucleotides encoding amino acids 679 to 1255 of HER-2.
A mixture of a 10× kinase reaction buffer (600 mM Hepes at pH 7.5, 30 mM Magnesium Chloride, 0.03 mM Sodium Vanadate and […] PEG 20,000), DTT (1.2 mM final from a 10 mM stock), ATP (1 μM from a 10 mM stock), biotinylated polyGluTyr (1.5 ng/μL final from stock of 1 μg/μL prepared by Upstate Biotechnologies, Lake Placid, N.Y.), Manganese Chloride (3 mM final from a 1 M stock), γ-^33P-ATP (10 μCi/μL stock) and water (70 μL/well) was added to each well of a Streptavidin Flashplate (Cat. # SMP103, NEN, Boston, Mass.).
Test compound stock (1 μL) was added to the appropriate wells. Diluted GSTHER2 kinase (6.7 ng/μL diluted into 50 mM Tris-HCl at pH 8.0 and 0.1% bovine serum albumin) (30 μL) was added (total volume of 200 ng/well) to initiate the reactions.
The reaction plates were incubated at 30° C. for 1 hr. The reaction was terminated by aspirating the reaction mixture from the plate wells and washing the wells three times with a 1×PBS stop buffer (300 μL) and 100 mM EDTA. After the final wash, the same stop buffer (200 μL) was again added to the wells. The plates were then sealed and read on the TopCount scintillation counter. […]

Take `C#Cc1cccc(Nc2ncnc3nc(Nc4ccc(CNC[C@H]5CCCO5)cc4)sc23)c1` [Cpd 64, N^7-(3-ethynyl-phenyl)-N^2-(4-{[(2R)-(tetrahydro-furan-2-ylmethyl)-amino]-methyl}-phenyl)-thiazolo[4,5-d]pyrimidine-2,7-diamine]: the inhibition at 1 µM was 21% in assay [1], 17% in assay [3] and 1% in assay [4]. The same compound showed an IC50 in assay [2] of 3.96 nM.

As to `Fc1ccc(Nc2ncnc3nc(Nc4ccc(CN5CCOCC5)cc4)sc23)cc1Cl` [Cpd 18, N^7-(3-chloro-4-fluoro-phenyl)-N^2-(4-morpholin-4-ylmethyl-phenyl)-thiazolo[4,5-d]pyrimidine-2,7-diamine], the IC50 in assay [5] is > 100000 nM; in assay [6] it was > 100000 nM; in [7], > 100000 nM; in assay [2], 15.4 nM; in assay [8] (Homo sapiens, SK-OV-3, SK-OV-3 migration), 186 nM; in assay [8] (SK-OV-3 migration) it was 156 nM and 141 nM.

Turning to `CN1CCN(Cc2ccc(Nc3nc4ncnc(Nc5ccc(OCc6cccc(F)c6)c(Cl)c5)c4s3)cc2)CC1` [Cpd 68, N^7-[3-chloro-4-(3-fluoro-benzyloxy)-phenyl]-N^2-[4-(4-methyl-piperazin-1-ylmethyl)-phenyl]-thiazolo[4,5-d]pyrimidine-2,7-diamine], the IC50 in [9] was determined as 276 nM; in assay [5] it was 2030 nM; in assay [6], 2190 nM; in assay [7], 3080 nM; in [2] it was 20.3 nM.

(Values after patent publication US7605154B2, “Substituted Thiazolo [4,5-d]pyrimidines as protein kinase inhibitors” (Janssen Pharmaceutica N.V., priority 2005, dated 2009).)
